From paper PMC7562955 (Nature Communications, 2020)

Target: T1, human TLR8 (Homo sapiens, UniProt Q9NR97)
T1 construct: host or cells: HEK293 (TLR8/NF-κB/SEAPorter)
T1 sequence (Q9NR97 27-1041): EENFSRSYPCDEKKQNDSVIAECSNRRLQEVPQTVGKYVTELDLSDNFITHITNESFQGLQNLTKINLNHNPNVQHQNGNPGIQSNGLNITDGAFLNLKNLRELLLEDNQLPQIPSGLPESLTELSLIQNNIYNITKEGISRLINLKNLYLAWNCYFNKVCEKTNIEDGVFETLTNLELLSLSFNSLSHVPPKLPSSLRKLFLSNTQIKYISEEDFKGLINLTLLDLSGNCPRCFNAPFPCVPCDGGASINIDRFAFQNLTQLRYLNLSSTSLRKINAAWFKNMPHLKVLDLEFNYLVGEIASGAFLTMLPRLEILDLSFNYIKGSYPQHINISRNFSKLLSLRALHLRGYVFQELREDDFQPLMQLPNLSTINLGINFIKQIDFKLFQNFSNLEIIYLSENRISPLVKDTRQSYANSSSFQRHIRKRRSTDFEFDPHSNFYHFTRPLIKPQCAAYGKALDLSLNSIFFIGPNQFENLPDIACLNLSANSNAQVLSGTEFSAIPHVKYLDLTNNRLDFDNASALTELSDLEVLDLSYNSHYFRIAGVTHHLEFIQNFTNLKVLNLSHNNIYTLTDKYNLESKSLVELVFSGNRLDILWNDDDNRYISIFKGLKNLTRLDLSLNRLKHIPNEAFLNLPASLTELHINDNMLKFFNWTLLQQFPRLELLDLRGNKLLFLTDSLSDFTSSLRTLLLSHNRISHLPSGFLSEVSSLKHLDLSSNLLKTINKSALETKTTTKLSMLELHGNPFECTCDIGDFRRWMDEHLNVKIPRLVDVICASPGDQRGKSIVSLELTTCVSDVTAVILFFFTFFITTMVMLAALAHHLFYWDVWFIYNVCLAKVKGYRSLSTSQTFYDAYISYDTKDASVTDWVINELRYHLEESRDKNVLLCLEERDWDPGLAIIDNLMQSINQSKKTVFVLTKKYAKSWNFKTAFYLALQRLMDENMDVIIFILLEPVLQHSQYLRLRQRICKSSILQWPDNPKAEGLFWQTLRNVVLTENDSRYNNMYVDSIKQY
Assay: Human TLR8 reporter gene inhibitory activity assay (NF-κB/SEAP HEK293)
Type: cell-based
Parameters: key to human TLR8 activity, reporter signal: SEAP activity as absorbance at 405 nm
Settings: for human TLR8 activity, reporter signal: R848 30 μM
Method: Compounds were dissolved in dimethyl sulfoxide. Before stimulation with compound, Human TLR7 reporter cell line (TLR7/NF-κB/SEAPorter^TM HEK293 cell, Novus Biological, USA), human TLR8 reporter cell line (TLR8/NF-κB/SEAPorter^TM HEK293 cell, Novus Biological), and human TLR9 reporter cell line (TLR9/NF-κB/SEAPorter^TM HEK293 cell, Novus Biological) were seeded in 96-well microtiter plate (AGC techno glass, Japan) at 5 × 10^4 cells/well in DMEM (GIBCO, United Kingdam) with 10 % fetal bovine serum (GIBCO), and 10 ug/ml Blastcidin S HCl (GIBCO) and incubated at 37 °C in 5% CO2. […] The plates were then incubated an additional 20 ± 1 h at 37 °C in 5% CO2 and then the secreted embryonic alkaline phosphatase (SEAP) activity was measured as activation of human TLR7, 8, and 9. The SEAP activity was evaluated as follows: pNPP (Invitrogen, USA) was added to the incubated sample (50 μl/well); after 15 min, 4 M sodium hydroxide solution (nacalai tesque, Japan) was added thereto (50 μl/well) to quench the reaction; and the absorbance of each sample was measured at 405 nm with microplate reader SpectraMax M4 (Molecular Devices, USA).

inhibition of TLR8 | Structure (SMILES) | human TLR8 activity, reporter signal (compound 0.0001 nM (as headed)) | human TLR8 activity, reporter signal (compound 0.001 nM (as headed)) | human TLR8 activity, reporter signal (compound 0.003 nM (as headed)) | human TLR8 activity, reporter signal (compound 0.01 nM (as headed)) | human TLR8 activity, reporter signal (compound 0.03 nM (as headed)) | human TLR8 activity, reporter signal (compound 0.1 nM (as headed)) | human TLR8 activity, reporter signal (compound 0.3 nM (as headed)) | human TLR8 activity, reporter signal (compound 1 nM (as headed)) | human TLR8 activity, reporter signal (compound 3 nM (as headed)) | human TLR8 activity, reporter signal (compound 10 nM (as headed)) | human TLR8 activity, reporter signal (compound 30 nM (as headed)) | human TLR8 activity, reporter signal (compound 100 nM (as headed))
without causing any inhibition | CCCCOc1nc(N)c2nc(-c3cccnc3)n(Cc3ccccc3)c2n1 [Cpd-5] | 2.52 | 2.344 | 2.316 | 2.3178 | 2.3193 | 2.309 | 2.404 | 2.342 | 2.269 | 2.216 | 2.0417 | 2.1673
– | CCOc1nc(C)c2nc(-c3cncc(F)c3)n(Cc3ccc(CN4C[C@@H]5C[C@H]4CN5C)cc3)c2n1 [Cpd-7] | 2.3942 | 2.221 | 2.201 | 2.199 | 2.25 | 2.186 | 2.297 | 2.272 | 2.178 | 2.071 | 1.909 | 1.678
– | CCOc1nc(N)c2nc(-c3cncc(F)c3)n(Cc3ccc(CN4C[C@@H]5C[C@H]4CN5C)cc3)c2n1 [Cpd-6] | 2.3942 | 2.34 | 2.276 | 2.199 | 2.181 | 2.241 | 2.31 | 2.218 | 2.159 | 2.04 | 1.859 | 1.331
